Values after ≈ are worked out from the molar mass of the structure shown. Read-outs that look alike come from different tables or passages of the source.
Assays:
Type in all cases: cell-based
human glioma cell SNB-19 = assay: In vitro anticancer activity test (MTT cell proliferation assay)
Protocol: (§1) The anticancer activity of the compounds was tested using an in vitro cancer cell tests. The specific test method is as follows: • 1. Cell recovery and culture method: the cryovial was taken out from the liquid nitrogen container firstly, soaked directly in 37°C warm water, and shaked from time to time to let it thaw as soon as possible. Then, the cryovial was transferred to a clean bench, and the lid was open. The cell suspension was taken into a centrifuge tube using a rubber-tipped dropper and more than 10 times the culture medium was added, mixed well, and centrifuged at 50g for 5 minutes. Then, the supernatant was discarded, complete culture medium containing 10% fetal bovine serum was added to resuspend the cells, the cells was counted, the cell density was adjusted, and then inoculated into a culture bottle. The culture bottle was placed in a cell culture incubator at 5% CO2 and 37°C. The complete culture medium was replaced once the next day and the culture was continued. • 2. Cell passaging method: adherent cells in the logarithmic growth phase were placed in a clean bench, the original culture medium was discarded, and washed three times with 1×PBS. An appropriate amount of 0.25% trypsin digestion solution was added to moisten the cells, and then the trypsin solution was aspirated. The cells were placed in a cell culture incubator at 5% CO2 and 37°C for digestion for a suitable time, and observed under a microscope. When 90% of the cells become round, the cells were moved immediately to the clean bench and complete culture medium was added to terminate digestion. Then, the cells were dislodged by pipetting up and down with a rubber-tipped dropper to single cells. The cells were counted, and the cell density was adjusted. The cells were inoculated into a suitable culture bottle or dish, added enough complete culture medium, and placed in a cell culture incubator at 5% CO2 and 37°C for static culture. For suspension cells in the logarithmic phase, the original culture medium was directly centrifuged at 50g for 5 minutes, the supernatant was discarded, and the cells were washed once with PBS and centrifuged. After discarding the supernatant, the complete culture medium was added and the cells were dispersed using a rubber-tipped dropper. The cells are counted, and the cell density was adjusted. The cells were inoculated into appropriate culture bottles or culture dishes, and sufficient complete culture medium was added, and the cells were cultured in a cell culture incubator at 5% CO2 and 37°C. • 3. Cell proliferation assay: cells in good state in logarithmic phase were taken and appropriate amount of the cells was inoculated into 96-well plates according to the cell passage treatment method, with each well containing 180 µL complete medium. After the cells growth was recovered and the number of cells in each well is 5000±500, a drug was added for treatment. After drug treatment during the experimental time, MTT solution with a final concentration of 0.5 mg/mL was added to each well, and placed in a cell culture incubator at 5% CO2 and 37°C to allow a fully reaction of MTT with cells. After 4 hours, the solution in the 96-well plate was discarded, 100 µL of DMSO was added, and shaked to dissolve the formazan precipitated at the bottom of the plate, and the absorbance value of samples was detected at a wavelength of 570 nm using a microplate reader. Calculation method of cell viability rate: Viability rate = A sample group÷A control group × 100% [formula] • 4. Cell photography step: cells in good state in logarithmic phase were taken and an appropriate amount of cells was inoculated into 96-well plates according to the cell passage treatment method, with each well containing 180 µL complete medium. After the cells growth was recovered and the number of cells in each well is 5000 ± 500, a drug was added for treatment. […]

[1] = test system: human Burkitt's lymphoma cell Raji; assay: as above
Protocol: as §1

[2] = test system: human osteosarcoma cell U2-OS; assay: as above; conditions: U2OS
Protocol: as §1

[3] = test system: human prostate cancer cell PC-3; assay: as above
Protocol: as §1

E. feacium ATCC 700221 = assay: In vitro antibacterial activity assay (MIC, broth dilution); conditions: Table 1; 37°C, 16 hours; read-out: G+ bacteria MIC E. feacium ATCC 700221
Text: (§2) The method used to indicate the activity of the compounds in this example is to record the minimum inhibitory concentration (MIC) of the compounds against bacteria. The specific experimental method is as follows: • 1. The bacterial liquid cultured from a single colony was taken, and diluted into autoclaved CAMHB broth in a ratio of 1:1000, and mixed well. • 2. The prepared drug solution was filtered through a sterile 0.22µm syringe filter and placed in a sterile EP tube for later use. • 3. A 96-well plate was taken, and 20µL of drug solution (400µg/mL) was added to each well in the first column of the 96-well plate. Then, 180µL of diluted bacterial liquid was added and mixed well (Perform 3 replicate rows for each drug). The same process was performed for the hydrochloride drug. • 4. 100 µL of diluted bacterial liquid was added to each well in the remaining 11 columns of the 96-well plate. Drugs are the same as above. • 5. Serial dilution: 100µL of liquid was taken from the first column to the second column, mixed well, then 100µL of liquid was taken from the second column to the third column, mixed well, and so on, sequentially diluting down to the last column (column 12). After mixing column 12 well, 100µL of liquid thereof was discarded. The drug concentration in each well was decreased by two-fold serially (the concentration in the first well is 40µg/mL). • 6. Blank CAMHB broth without added bacteria liquid was added to 3 blank wells in the 96-well plate, as negative control. • 7. The diluted bacterial liquid was added to 3 blank wells in the 96-well plate, as positive control. • 8. Incubated at 37°C for 16 hours. • 9. Results reading: the minimum inhibitory concentration is the minimum drug concentration at which no bacterial growth is visible to the naked eye and without turbidity.

E. coli ATCC 25922 = assay: as above; conditions: Escherichia coli, ATCC25922
Text: as §2

P.aeruginosa ATCC 27853 = assay: as above; conditions: Pseudomonas aeruginosa, ATCC27853; Table 2; 37°C, 16 hours; read-out: G- bacteria MIC P.aeruginosa ATCC 27853
Text: as §2

S. aureus ATCC 43300 = assay: as above; conditions: Staphylococcus aureus, ATCC43300
Text: as §2

A. baumannii ATCC 17978 = assay: as above; conditions: Acinetobacter baumannii, ATCC17978; Table 2; 37°C, 16 hours; read-out: G- bacteria MIC A. baumannii ATCC 17978
Text: as §2

[4] = Table 2, 37°C, 16 hours, read-out: G- bacteria MIC E. coli ATCC 25922
[5] = Table 1, 37°C, 16 hours, read-out: G+ bacteria MIC S. aureus ATCC 43300

SMILES | IC50 (human glioma cell SNB-19) [µM] | IC50 [1] [µM] | IC50 [2] [µM] | IC50 [3] [µM] | MIC (E. feacium ATCC 700221) [µg/mL] | MIC (E. coli ATCC 25922; [4]) [µg/mL] | MIC (P.aeruginosa ATCC 27853) [µg/mL] | MIC (S. aureus ATCC 43300; [5]) [µg/mL] | MIC (A. baumannii ATCC 17978) [µg/mL] | MIC (E. coli ATCC 25922; Table 3, read-out: E. coli ATCC 25922 MIC) [µg/mL] | MIC (S. aureus ATCC 43300; Table 3, read-out: S. aureus ATCC 43300 MIC) [µg/mL]
O=C(O)c1cn(C2CC2)c2cc(N3CCNCC3)c(F)cc2c1=O [Ciprofloxacin] | > 100 | > 100 | > 100 | > 100 | > 8 | 0.1 to 1 (≈ 0.302 to 3.02 µM) | 0.1 to 1 (≈ 0.302 to 3.02 µM) | 0.1 to 1 (≈ 0.302 to 3.02 µM) | 0.1 to 1 (≈ 0.302 to 3.02 µM) |  | 
O=C(O)c1cn(C2CC2)c2c(Cl)c(-c3ccc(S(=O)(=O)NCCCC(F)(F)F)nc3)c(F)cc2c1=O [Example 29, 8-chloro-1-cyclopropyl-6-fluoro-4-oxo-7-(6-(N-(4,4,4-trifluorobutyl)sulfamoyl)pyridin-3-yl)-1,4-dihydroquinolin-3-carboxylic acid] | 1 to 10 | 1 to 10 | 1 to 10 | 1 to 10 | 1 to 8 (≈ 1.83 to 14.6 µM) | ≤ 0.1 | ≤ 0.1 | ≤ 0.1 | ≤ 0.1 | ≤ 1 | ≤ 1
CCN(CC)CCNC(=O)c1c(C)[nH]c(/C=C2\C(=O)Nc3ccc(F)cc32)c1C [Sunitinib] | 6.5 ± 1.2 | 20.3 ± 2 | 4.7 ± 1.1 | 14.7 ± 6.6 |  |  |  |  |  |  | 

From patent EP4644391A1, “NOVEL PHENYLQUINOLONE COMPOUND HAVING ANTIBACTERIAL AND ANTICANCER FUNCTIONS, AND PREPARATION THEREOF” (Alphamol Science Ltd (Shanghai), priority 2022, dated 2024)
